Eleven molecules from US20260159481A1, “INDOLE DERIVATIVE WITH SUBSTITUENT AND PHARMACEUTICAL USE” (MITOIMMUNE THERAPEUTICS INC., priority 2023, published 2026) can be followed below.

The nature of data set [1]: Pharmacokinetics in plasma after oral administration to ICR mice. To be noted: oral 10 mg/kg, plasma. Format: in vivo. The method, then: Pharmacokinetic parameters may include the maximum plasma concentration (Cmax), the time to reach the maximum plasma concentration (Tmax), the area under the plasma concentration-time curve (AUCinf), and a half-life (t1/2).
Example Compound 27 was orally administered to ICR mice at a dose of 10 mg/kg. Drug concentrations in the plasma of mice were measured by HPLC-MS/MS spectroscopy 0.5, 1, 2, 4, 8, or 24 hours after administration.
The comparative example compound was orally administered to ICR mice at a dose of 10 mg/kg. The drug concentrations in the plasma of the mice were measured by HPLC-MS/MS 0.5, 1, 2, 4, 8, or 24 hours after administration.

In a further data set the test system is cardiac cells (H9C2). Nature of the data set: Protective effect against t-BHP-induced cell death in cardiac cells (LDH release). In kind it is cell-based. To be noted: Rattus norvegicus, t-BHP 400 PM, 2 hours, read-out: EC50, protective effect against cell death due to t-BHP induction. As for the experimental part: To confirm a protective effect on cardiac cells, H9C2 cells were seeded at 1.5×10^4 cells/well in a 96-well plate and cultured for 24 hours. The example compounds were diluted to have the final concentration of 0.001, 0.01, 0.03, 0.1, 0.3, 1, 3, 10, and 30 PM, respectively, and then added to different wells, and the resulting cells were cultured for 15 to 20 minutes. Tert-butyl hydroperoxide (t-BHP) was treated to have the final concentration of 400 PM, and the resulting cells were cultured for 2 hours. To confirm the cell death protection effect of each compound, the degree of extracellular secretion of lactate dehydrogenase (LDH) was measured using a cytotoxicity LDH assay kit [Dojindo; CK12]. Briefly, after 2 hours of t-BHP treatment on the cells, 70 μL of the supernatant was taken from the 96-well plate where the cells were cultured and transferred to a new 96-well plate. The assay buffer included in the kit was added at 70 μL/well (equal to that of the sample) and the plate was covered with foil to block light and allowed to react for 15 minutes at room temperature. While observing a color change of each sample, 35 μL/well of a stop solution was added, an absorbance at 490 nm was measured using an iD3 spectrophotometer, and an EC50 value was calculated.
(In general: LDH leaks from cells whose membrane has failed.)

SMILES strings stand for the structures.

In the case of `OCc1cc(NC2CCCC2)c2[nH]c(-c3ccccc3)cc2c1` [Comparative Example, [7-(cyclopentylamino)-2-phenyl-1H-indol-5-yl]methanol, reference compound], in data set [1] (mouse), the Cmax (in general, the peak of the concentration-time curve) is 2110 ng/mL; the Tmax (usually the time from dosing to the highest level) stood at 1 h; the half-life (as a rule, how long it takes for the measured level to halve) is 84 min. Further, the concentration at 0.5 h in data set [1] (mouse, 0.5 hr) turned out to be 1640 ng/mL. In addition, in data set [1] (mouse, 1 hr), the concentration at 1 h is 2110 ng/mL. Also, in data set [1] (mouse, 2 hr), the concentration at 2 h amounted to 1120 ng/mL. Moreover, the concentration at 4 h in data set [1] (mouse, 4 hr) is 389 ng/mL. In data set [1] (mouse, 8 hr), this molecule yielded a concentration at 8 h of 51 ng/mL. In data set [1], the AUCinf is reported as 5,459 ng · hr/mL and the area under the plasma concentration-time curve (AUCinf) is 5460 ng·h/mL.

With `O=C(Cc1cc(NCc2ccccc2)c2[nH]c(-c3ccccc3)cc2c1)NC1CC1` [Example 17, 2-(7-(benzylamino)-2-phenyl-1H-indol-5-yl)-N-cyclopropylacetamide], the EC50 (in general, the concentration giving half of the maximal effect) with cardiac cells (H9C2) was at most 300 nM.

As to `CCN(CC)C(=O)c1cc(NC2CCOCC2)c2[nH]c(-c3ccccc3)cc2c1` [Example 2, N,N-diethyl-2-phenyl-7-((tetrahydro-2H-pyran-4-yl)amino)-1H-indol-5-carboxamide], in the data set on cardiac cells (H9C2), the EC50 was at most 300 nM.

Take `CN(CCO)CCOCc1cc(NC2CCOCC2)c2[nH]c(-c3ccccc3)cc2c1` [Example 53, 2-(methyl(2-((2-phenyl-7-((tetrahydro-2H-pyran-4-yl)amino)-1H-indol-5-yl)methoxy)ethyl)amino)ethan-1-ol]: in the data set on cardiac cells (H9C2), the half-maximal effective concentration (EC50) was at most 300 nM.

For the molecule `OCCOCCCc1cc(NC2CCOCC2)c2[nH]c(-c3ccccc3)cc2c1` [Example 28, 2-(3-(2-phenyl-7-((tetrahydro-2H-pyran-4-yl)amino)-1H-indol-5-yl)propoxy)ethan-1-ol], the EC50 with cardiac cells (H9C2) is at most 300 nM.

As to `COCCOCCNC(=O)c1cc(NC2CCOCC2)c2[nH]c(-c3ccccc3)cc2c1` [Example 56, N-(2-(2-methoxyethoxy)ethyl)-2-phenyl-7-((tetrahydro-2H-pyran-4-yl)amino)-1H-indole-5-carboxamide], the EC50 in the data set on cardiac cells (H9C2) was in the range of 300 to 1000 nM.

`O=C(Nc1ccccc1)c1cc(NCc2ccccc2)c2[nH]c(-c3ccccc3)cc2c1` [Example 10, 7-(benzylamino)-N,2-diphenyl-1H-indole-5-carboxamide]: in the data set with cardiac cells (H9C2), the EC50 lay within 300 to 1000 nM.

`CS(=O)(=O)CCOCc1cc(NC2CCOCC2)c2[nH]c(-c3ccccc3)cc2c1` [Example 45, 5-((2-(methylsulfonyl)ethoxy)methyl)-2-phenyl-N-(tetrahydro-2H-pyran-4-yl)-1H-indol-7-amine]: the EC50 with cardiac cells (H9C2) is at most 300 nM.

As to `COCCNCCOCc1cc(NC2CCOCC2)c2[nH]c(-c3ccccc3)cc2c1` [Example 60, 5-((2-((2-methoxyethyl)amino)ethoxy)methyl)-2-phenyl-N-(tetrahydro-2H-pyran-4-yl)-1H-indol-7-amine], the EC50 in the data set on cardiac cells (H9C2) is at most 300 nM.

For `CS(=O)(=O)CCOCc1cc(NC2CCCC2)c2[nH]c(-c3ccccc3)cc2c1` [Example 44, N-cyclopentyl-5-((2-(methylsulfonyl)ethoxy)methyl)-2-phenyl-1H-indol-7-amine], the EC50 in the data set with cardiac cells (H9C2) was at most 300 nM.

Take `CC(C)(O)C#Cc1cc(NC2CCCC2)c2[nH]c(-c3ccccc3)cc2c1` [Example 25, 4-(7-(cyclopentylamino)-2-phenyl-1H-indol-5-yl)-2-methylbut-3-yn-2-ol]: the EC50 in the data set with cardiac cells (H9C2) is at most 300 nM.
